Results published in ChEMBL document CHEMBL1201862, “PubChem BioAssay data set” (2004).
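Step 1: Grow cells in 96-well plates. Step 2: Expose to compound for 48 hours at 5 concentrations. Step 3: Interpolate endpoints linearly; if unreached, use highest concentration. Abbreviation: GI50, concentration required for 50% inhibition of growth.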 The source made the active and inactive calls. No stated cut-off is given here; in the data, active = GI50 up to about 1.1 µM and inactive = higher.

Columns and labels:
Test in all cases: growth of human tumour cells (NCI), 48 h
HCC 2998 = test system: HCC 2998
CAKI-1 = test system: CAKI-1
NCI-H226 = test system: NCI-H226
SF-268 = test system: SF-268
EKVX = test system: EKVX
SK-OV-3 = test system: SK-OV-3
HL-60 = test system: HL-60
PC-3 = test system: PC-3
MCF7 = test system: MCF7
BT-549 = test system: BT-549
U-251 = test system: U-251
T47D = test system: T47D
A549 = test system: A549
SF-295 = test system: SF-295
SN12C = test system: SN12C
NCI-H23 = test system: NCI-H23
MOLT-4 = test system: MOLT-4
Hs-578T = test system: Hs-578T
KM-20L2 = test system: KM-20L2
DLD-1 = test system: DLD-1

| SMILES | GI50 (HCC 2998) | GI50 (CAKI-1) | GI50 (NCI-H226) | GI50 (SF-268) | GI50 (EKVX) | GI50 (SK-OV-3) | GI50 (HL-60) | GI50 (PC-3) | GI50 (MCF7) | GI50 (BT-549) | GI50 (U-251) | GI50 (T47D) | GI50 (A549) | GI50 (SF-295) | GI50 (SN12C) | GI50 (NCI-H23) | GI50 (MOLT-4) | GI50 (Hs-578T) | GI50 (KM-20L2) | GI50 (DLD-1) |
| --- | --- | --- | --- | --- | --- | --- | --- | --- | --- | --- | --- | --- | --- | --- | --- | --- | --- | --- | --- | --- |
| COc1ccc2[nH]c(C(=O)N3CC(CCl)c4c3cc(N)c3ccccc43)cc2c1 (centres undefined) | < 0.01 µM (active) | < 0.01 µM (active) | < 0.0133 µM (active) | < 0.01 µM (active) | < 0.01 µM (active) | < 0.014 µM (active) | < 0.01 µM (active) | < 0.01 µM (active) | < 0.01 µM (active) | < 0.0153 µM (active) | < 0.01 µM (active) | 0.0101 µM (active) | < 0.01 µM (active) | < 0.01 µM (active) | < 0.01 µM (active) | < 0.01 µM (active) | < 0.01 µM (active) |  |  |  |
| COc1ccc2oc3c(ccc[n+]3C)c(=O)c2c1 | > 100 µM (inactive) | > 100 µM (inactive) | > 100 µM (inactive) | > 100 µM (inactive) | > 100 µM (inactive) | > 100 µM (inactive) | > 100 µM (inactive) | > 100 µM (inactive) | > 100 µM (inactive) |  | > 100 µM (inactive) | > 100 µM (inactive) | > 100 µM (inactive) | > 100 µM (inactive) | > 100 µM (inactive) | > 100 µM (inactive) |  | > 100 µM (inactive) |  |  |
| COC1=CC(=O)c2c(c(COC(C)=O)cn2C)C1=O |  | 0.0405 µM (active) | 0.137 µM (active) | 0.173 µM (active) | 0.279 µM (active) | 0.119 µM (active) | 0.299 µM (active) | 0.309 µM (active) | 0.184 µM (active) | 0.0208 µM (active) | 0.129 µM (active) | 0.736 µM (active) | 0.207 µM (active) | 0.0286 µM (active) | 0.0622 µM (active) | 0.0715 µM (active) | 0.305 µM (active) |  |  |  |
| O=c1cnn(C/C=C/CP(=O)(O)O)c(=O)[nH]1 | > 100 µM (inactive) | > 100 µM (inactive) | > 100 µM (inactive) | > 100 µM (inactive) | > 100 µM (inactive) |  | > 100 µM (inactive) | > 100 µM (inactive) | > 100 µM (inactive) | > 100 µM (inactive) | > 100 µM (inactive) | > 100 µM (inactive) | > 100 µM (inactive) |  | > 100 µM (inactive) | > 100 µM (inactive) |  | > 100 µM (inactive) |  |  |
| COc1ccc2c(=O)c(O)c(-c3ccc(OC)c(OC)c3)oc2c1 | 27.9 µM (inactive) | 3.44 µM (inactive) |  | 4.84 µM (inactive) | 6.95 µM (inactive) | 5.42 µM (inactive) | 1.66 µM (inactive) | 9.38 µM (inactive) | 3.74 µM (inactive) |  | 3.52 µM (inactive) | > 100 µM (inactive) | 4.92 µM (inactive) | 10.1 µM (inactive) |  |  | 3.22 µM (inactive) |  |  |  |
| COc1nc(Cl)nc(N[C@H](C)c2c3ccccc3cc3ccccc23)n1 |  | 11.6 µM (inactive) | 13.1 µM (inactive) | 18 µM (inactive) | 16.1 µM (inactive) | 15.7 µM (inactive) | 19.1 µM (inactive) | 14.9 µM (inactive) | 14.2 µM (inactive) | 18 µM (inactive) | 16.4 µM (inactive) | 1.99 µM (inactive) | 27.7 µM (inactive) | 15.6 µM (inactive) | 0.879 µM (active) | 16.9 µM (inactive) | 14.1 µM (inactive) | 7.69 µM (inactive) |  |  |
| O=C(Nc1ccc(I)cc1C(=O)NCCO)c1cccs1 | > 100 µM (inactive) | > 100 µM (inactive) | > 100 µM (inactive) | > 100 µM (inactive) | > 100 µM (inactive) | > 100 µM (inactive) | > 100 µM (inactive) | > 100 µM (inactive) | > 100 µM (inactive) | > 100 µM (inactive) | > 100 µM (inactive) |  | 82.8 µM (inactive) | > 100 µM (inactive) | > 100 µM (inactive) | > 100 µM (inactive) | > 100 µM (inactive) |  |  |  |
| Cc1cccc2sc(-c3ccc(O)cc3)nc12 |  | 16.5 µM (inactive) | 14.8 µM (inactive) | 16.6 µM (inactive) | 0.579 µM (active) | 19.6 µM (inactive) | 15.9 µM (inactive) | 17.5 µM (inactive) | 12.2 µM (inactive) | 11.8 µM (inactive) | 19.3 µM (inactive) |  | 12.8 µM (inactive) | 14.6 µM (inactive) | 18.2 µM (inactive) | 16.5 µM (inactive) | 43.7 µM (inactive) |  |  |  |
| O=C1CN2Cc3cc(N4CCOCC4)ccc3N=C2N1 |  | 56.5 µM (inactive) | 44.6 µM (inactive) |  |  | 25.8 µM (inactive) | 72.6 µM (inactive) | 31.4 µM (inactive) | 60.8 µM (inactive) | > 100 µM (inactive) | 39.4 µM (inactive) | > 100 µM (inactive) |  | 38.6 µM (inactive) | 63.5 µM (inactive) | 20.3 µM (inactive) | 25 µM (inactive) | 23.8 µM (inactive) |  |  |
| CCN(CC)CCCNC(=O)c1ccccc1Nc1c(Cl)cccc1Cl | 7.03 µM (inactive) |  | 12.4 µM (inactive) | 15.5 µM (inactive) | 11.1 µM (inactive) | 14.2 µM (inactive) | 3.18 µM (inactive) |  |  |  |  |  | 15.7 µM (inactive) |  | 14.2 µM (inactive) | 16.6 µM (inactive) | 11.8 µM (inactive) |  | 2.56 µM (inactive) | 11.6 µM (inactive) |
| Nc1nc(N)nc(-c2ccccc2NS(=O)(=O)c2ccc([N+](=O)[O-])cc2)n1 | > 70.5 µM (inactive) |  | 61.2 µM (inactive) | 96.8 µM (inactive) | > 100 µM (inactive) | > 100 µM (inactive) | 19.3 µM (inactive) |  | > 81.5 µM (inactive) |  | > 84.9 µM (inactive) |  | > 91.2 µM (inactive) | 99.1 µM (inactive) | 97.3 µM (inactive) | 37.2 µM (inactive) | > 54.5 µM (inactive) |  | > 100 µM (inactive) | 59.6 µM (inactive) |
| COc1ccc(CC(CO)NC(=O)OCc2ccccc2)cc1Oc1ccc(CC(CO)NC(=O)OCc2ccccc2)cc1 (centres undefined) | 21.2 µM (inactive) | 20.4 µM (inactive) |  | 7.82 µM (inactive) | 3.85 µM (inactive) | 13.4 µM (inactive) |  | 11.2 µM (inactive) |  | 12.4 µM (inactive) | 21.2 µM (inactive) |  | 11.7 µM (inactive) | 11.6 µM (inactive) | 16.7 µM (inactive) | 16.5 µM (inactive) | 3.43 µM (inactive) |  |  |  |
